Measurements: patent US12655123B2, “Heteroaryl compounds, solid forms, preparation methods and uses thereof” (InventisBio Co., Ltd., priority 2022, dated 2026)
pIC50: −log10 of the molar value. Values after ≈ are worked out from the molar mass of the structure shown. “Also recorded” adds a separate entry of the source. Counter-ions that a name gives are not always drawn. One block for each molecule: values may come before it.

Tests used:
IL23 = details: as tested in PCT/CN2021/140271; read-out: HEK blue IL23 IC50; cited from earlier work
[1] = Solubility in bio-relevant media (FaSSIF, FeSSIF, SGF); assay type: physicochemical
From the text: (§1) High Performance Liquid Chromatography (HPLC): a representative HPLC method is shown below, which can be used, for example, to analyze the purity, solubility, and stability of Compound 1 herein.

[2] = Dynamic vapor sorption (DVS) analysis; assay type: physicochemical; details: for hygroscopic weight gain / water uptake (DVS): at 90% RH
Method: Dynamic Vapor Sorption (DVS) Analysis: Moisture sorption/desorption data was collected on a DVS Intrinsic PLUS (SMS, UK). The sample was placed into a tared sample chamber and automatically weighed. The sample was dried at 40° C. until the dm/dt was less than 0.002% and cooled to 25° C.

Solid stability = assay type: physicochemical
From the text: as §1

[3] = Inter-conversion study among identified anhydrates in organic solvents; assay type: physicochemical; details: different organic solvents, RT to 60° C.
Method: Inter-conversion study among identified anhydrates (Form I, Form II, Form III, Form IV, Form V, Form VIII, Form X, Form XIII, Form XIV, Form XV) was conducted in different organic solvents between RT to 60° C.

[4] = Slurry bridging studies among Form I, Form III and Form VI under different water activities; assay type: physicochemical; details: versus Form I and Form VI
[5] = Simulated Gastric Fluid (SGF), simulated gastric fluid, thermodynamic from solid, SGF
[6] = thermodynamic from solid, FaSSIF
[7] = thermodynamic from solid, FeSSIF

SMILES: [2H]C([2H])([2H])NC(=O)c1nnc(NC(=O)C2CC2)cc1Nc1ncc(Cl)cc1S(C)(=O)=O [Compound 1]
pIC50 (IL23): 8.60

SMILES: [2H]C([2H])([2H])NC(=O)c1nnc(NC(=O)C2CC2)cc1Nc1ncc(Cl)cc1S(C)(=O)=O [Form III]
Solubility (in words) [1]: low and pH-dependent with higher solubility observed in Simulated Gastric Fluid (SGF)
solubility at 0.5 h [1, 5]: 7.3 µg/mL (≈ 17.1 µM)
solubility at 2 h [1, 5]: 8.2 µg/mL (≈ 19.2 µM)
solubility at 24 h [1, 5]: 5.7 µg/mL (≈ 13.3 µM)
solubility at 0.5 h [1, 6]: 1.1 µg/mL (≈ 2.57 µM)
solubility at 2 h [1, 6]: 1.1 µg/mL (≈ 2.57 µM)
solubility at 24 h [1, 6]: 1.3 µg/mL (≈ 3.04 µM)
solubility at 0.5 h [1, 7]: 2.6 µg/mL (≈ 6.08 µM)
solubility at 2 h [1, 7]: 3.4 µg/mL (≈ 7.95 µM)
solubility at 24 h [1, 7]: 4.1 µg/mL (≈ 9.58 µM)
DVS reversibility [2]: Reversible
DVS Wt. gain % ([2]; 0-80% RH): 0.09%, 0-80% RH
DVS Wt. gain % ([2]; 80-90% RH): 0.03%, 80-90% RH
hygroscopic weight gain / water uptake (DVS) [2]: 0.13%
Solid stability (Solid stability; 40° C./75% RH for 7 d): physically and chemically stable; also recorded: Chemically and physically stable
Solid stability (Solid stability; 60° C. for 7 d): physically and chemically stable; also recorded: Chemically and physically stable
Solid stability (Solid stability; 92.5% RH for 10 d): crystal form remained unchanged; also recorded: Physically stable
relative stability among anhydrate forms [3]: most stable anhydrate form
water activity up to which the form is more stable ([4]; 25° C.): not more than 0.56
water activity up to which the form is more stable ([4]; 50° C.): ≤ 0.83

SMILES: [2H]C([2H])([2H])NC(=O)c1nnc(NC(=O)C2CC2)cc1Nc1ncc(Cl)cc1S(C)(=O)=O [choline salt Form K]
hygroscopic weight gain / water uptake (DVS) [2]: about 23%

The remaining lines, values ahead:

hygroscopic weight gain / water uptake (DVS) [2]: about 0.92%
SMILES: [2H]C([2H])([2H])NC(=O)c1nnc(NC(=O)C2CC2)cc1Nc1ncc(Cl)cc1S(C)(=O)=O [phosphate Form E]

hygroscopic weight gain / water uptake (DVS) [2]: about 10%
SMILES: [2H]C([2H])([2H])NC(=O)c1nnc(NC(=O)C2CC2)cc1Nc1ncc(Cl)cc1S(C)(=O)=O [sulfate Form A]

solubility ([1]; bio-relevant media (FaSSIF, FeSSIF, SGF), fassgf or other biorelevant, thermodynamic from solid): < 20 µg/mL
hygroscopic weight gain / water uptake (DVS) [2]: about 1.0%
SMILES: [2H]C([2H])([2H])NC(=O)c1nnc(NC(=O)C2CC2)cc1Nc1ncc(Cl)cc1S(C)(=O)=O [sulfate Form B]
